Source: ChEMBL document CHEMBL5505999, “Discovery of anti-inflammatory agents from 3, 4-dihydronaphthalene-1(2H)-one derivatives by inhibiting NLRP3 inflammasome activation” (Eur J Med Chem, 2024)

Columns and labels:
[1] = Cytotoxicity against mouse RAW264.7 cells assessed as survival rate at 2.5 uM incubated overnight by CCK-8 assay relative to control; type: toxicity, cell-based; conditions: read-out: Survival
RAW264.7 [2] = experiment: Anti-inflammatory activity in mouse RAW264.7 cells assessed as inhibition of LPS-induced IL-6 production at 2.5 uM pretreated with compound for 2 hrs followed by LPS addition and measured after 22 hrs by ELISA relative to control; type: functional; conditions: time 24 hrs
RAW264.7 [3] = experiment: Anti-inflammatory activity in mouse RAW264.7 cells assessed as inhibition of LPS-induced TNF-alpha production at 2.5 uM pretreated with compound for 2 hrs followed by LPS addition and measured after 22 hrs by ELISA relative to control; type: functional; conditions: time 24 hrs
RAW264.7 [4] = experiment: Anti-inflammatory activity in mouse RAW264.7 cells assessed as inhibition of LPS-induced IL-6 production at 10 uM pretreated with compound for 2 hrs followed by LPS addition and measured after 22 hrs by ELISA relative to control; type: functional; conditions: time 24 hrs
RAW264.7 [5] = experiment: Anti-inflammatory activity in mouse RAW264.7 cells assessed as inhibition of LPS-induced TNF-alpha production at 10 uM pretreated with compound for 2 hrs followed by LPS addition and measured after 22 hrs by ELISA relative to control; type: functional; conditions: time 24 hrs

Row | Structure (SMILES) | viability at 2.5 µM [1] | inhibition at 2.5 µM (RAW264.7 [2]) | inhibition at 2.5 µM (RAW264.7 [3]) | inhibition at 10 µM (RAW264.7 [4]) | inhibition at 10 µM (RAW264.7 [5])
1 | O=C1/C(=C/c2ccc(N3CCOCC3)nc2)CCc2ccc(Br)cc21 | 96.2% | 36.1% | 23.8% |  | 
2 | COc1ccc2c(c1)C(=O)/C(=C/c1ccc(N3CCN(C)CC3)cn1)CC2 | 89% | 51.6% | 35.3% |  | 
3 | COc1ccc2c(c1)C(=O)/C(=C/c1ccc(OC)c(C(F)(F)F)c1)CC2 | 114% | 44.2% | 51% |  | 
4 | CN1CCN(c2ccc(/C=C3\CCc4ccc(O)cc4C3=O)cn2)CC1 | 85.5% | 66.6% | 55.9% |  | 
5 | COc1ccc2c(c1)C(=O)/C(=C/c1ccc(N3CCOCC3)nc1)CC2 | 82.4% | 44.3% | 27.6% |  | 
6 | CN1CCN(c2ccc(/C=C3\CCc4cc(Br)ccc4C3=O)cc2)CC1 | 87% | 53.3% | 42.4% |  | 
7 | COc1ccc2c(c1)C(=O)/C(=C/c1ccc(-n3ccnc3)cc1)CC2 | 88.7% | 55.3% | 39.8% |  | 
8 | O=C1/C(=C/c2ccc(-n3ccnc3)cc2)CCc2ccc(O)cc21 | 87.1% | 50.2% | 25.3% |  | 
9 | CN1CCN(c2ccc(/C=C3\CCc4ccc(Br)cc4C3=O)cn2)CC1 | 104% | 63.4% | 51% |  | 
10 | O=C1/C(=C/c2ccc(-n3ccnc3)cc2)CCc2cc(F)ccc21 | 80.7% | 54.9% | 39.4% |  | 
11 | COc1ccc2c(c1)C(=O)/C(=C/c1ccc(N3CCOCC3)cc1)CC2 | 82.2% | 47.2% | 30.5% |  | 
12 | CN1CCN(c2ccc(/C=C3\CCc4cc(F)ccc4C3=O)cn2)CC1 | 98.2% | 49.3% | 32.8% |  | 
13 | CN1CCN(c2ccc(/C=C3\CCc4cc(Br)ccc4C3=O)nc2)CC1 | 96.8% | 55.9% | 40.6% |  | 
14 | CN1CCN(c2ccc(/C=C3\CCc4cc(Br)ccc4C3=O)cn2)CC1 | 87.8% | 54.7% | 39% |  | 
15 | CN1CCN(c2ccc(/C=C3\CCc4ccc(F)cc4C3=O)cn2)CC1 | 88.7% | 51.6% | 35.3% |  | 
16 | O=C1/C(=C/c2ccc(N3CCOCC3)cc2)CCc2ccc(O)cc21 | 81.6% | 48.9% | 32.3% |  | 
17 | O=C1/C(=C/c2ccc(N3CCOCC3)cc2)CCc2cc(F)ccc21 | 81.1% | 48.7% | 32.1% |  | 
18 | COc1ccc2c(c1)C(=O)/C(=C/c1ccc(N3CCN(C)CC3)cc1)CC2 | 98% | 50.1% | 33.6% |  | 
19 | COc1ccc2c(c1)CC/C(=C\c1ccc(N3CCN(C)CC3)cc1)C2=O | 91.3% | 50.9% | 34.6% |  | 
20 | COc1ccc2c(c1)CC/C(=C\c1ccc(N3CCOCC3)cc1)C2=O | 89.3% | 53.1% | 31.6% |  | 
21 | CN1CCN(c2ccc(/C=C3\CCc4ccc(F)cc4C3=O)cc2)CC1 | 91.5% | 57.3% | 37.3% |  | 

Row | Structure (SMILES) | viability at 2.5 µM [1] | inhibition at 2.5 µM (RAW264.7 [2]) | inhibition at 2.5 µM (RAW264.7 [3]) | inhibition at 10 µM (RAW264.7 [4]) | inhibition at 10 µM (RAW264.7 [5])
22 | CN1CCN(c2ccc(/C=C3\CCc4ccc(O)cc4C3=O)cc2)CC1 | 103% | 56.3% | 41.1% |  | 
23 | S=C(S)N1CCCC1 [PYRROLIDINE DITHIOCARBAMATE] |  |  |  | 48% | 36%
24 | O=C1/C(=C/c2ccc(N3CCOCC3)cc2)CCc2ccc(F)cc21 | 82.7% | 46.2% | 29.5% |  | 
25 | COc1ccc2c(c1)CC/C(=C\c1ccc(N3CCN(C)CC3)nc1)C2=O | 88.9% | 55% | 39.6% |  | 
26 | O=C1/C(=C/c2ccc(-n3ccnc3)cc2)CCc2ccc(F)cc21 | 98% | 34.3% | 19% |  | 
27 | O=C1/C(=C/c2ccc(N3CCOCC3)nc2)CCc2cc(Br)ccc21 | 86.2% | 47.5% | 31.4% |  | 
28 | CN1CCN(c2ccc(/C=C3\CCc4ccc(F)cc4C3=O)nc2)CC1 | 93.5% | 47.2% | 30.5% |  | 
29 | O=C1/C(=C/c2ccc(-n3ccnc3)cc2)CCc2cc(Br)ccc21 | 82.6% | 49% | 32.4% |  | 
30 | O=C1/C(=C/c2ccc(N3CCOCC3)nc2)CCc2ccc(F)cc21 | 99.8% | 40.2% | 23.8% |  | 
31 | O=C1/C(=C/c2ccc(N3CCOCC3)cc2)CCc2ccc(Br)cc21 | 82.7% | 38.6% | 22.4% |  | 
32 | O=C1/C(=C/c2ccc(N3CCOCC3)cc2)CCc2cc(Br)ccc21 | 92.8% | 46.4% | 29.6% |  | 
33 | O=C1/C(=C/c2ccc(-n3ccnc3)cc2)CCc2ccc(Br)cc21 | 91.2% | 55.3% | 39.8% |  | 
34 | COc1ccc2c(c1)CC/C(=C\c1ccc(N3CCOCC3)nc1)C2=O | 96% | 59.2% | 45% |  | 
35 | O=C1/C(=C/c2ccc(N3CCOCC3)nc2)CCc2cc(F)ccc21 | 85.2% | 47.7% | 31% |  | 
36 | COc1ccc2c(c1)CC/C(=C\c1ccc(-n3ccnc3)cc1)C2=O | 92.8% | 48.2% | 31.7% |  | 
37 | CN1CCN(c2ccc(/C=C3\CCc4ccc(Br)cc4C3=O)cc2)CC1 | 116% | 62.6% | 49.8% |  | 
38 | O=C1/C(=C/c2ccc(N3CCOCC3)nc2)CCc2ccc(O)cc21 | 104% | 48% | 30.8% |  | 
39 | COc1ccc2c(c1)C(=O)/C(=C/c1ccc(N3CCN(C)CC3)nc1)CC2 | 84.9% | 51.1% | 34.7% |  | 
40 | CN1CCN(c2ccc(/C=C3\CCc4cc(F)ccc4C3=O)cc2)CC1 | 90.5% | 48.4% | 37.1% |  | 
41 | CN1CCN(c2ccc(/C=C3\CCc4ccc(O)cc4C3=O)nc2)CC1 | 98.6% | 56.7% | 41.6% |  | 
